Results as given in patent publication US9879036B2, “Mitochondrial aldehyde dehydrogenase-2 binding compounds and methods of use thereof” (Aviv Therapeutics, Inc., priority 2014, dated 2018).
Numbering of substitutions follows the chain as printed.

Columns and labels:
Format in all cases: biochemical
[1] = target: T1, ALDH2*1/*1 (Homo sapiens, UniProt P05091); assay: ALDH2 enzymatic activity, NADH accumulation at 340 nm, acetaldehyde substrate, wild type; conditions: relative to baseline enzymatic activity (100%)
T1 construct: His-tag (N); made in house; host or cells: E. coli BL21 (pTrcHis vector)
T1 sequence (P05091 18-517): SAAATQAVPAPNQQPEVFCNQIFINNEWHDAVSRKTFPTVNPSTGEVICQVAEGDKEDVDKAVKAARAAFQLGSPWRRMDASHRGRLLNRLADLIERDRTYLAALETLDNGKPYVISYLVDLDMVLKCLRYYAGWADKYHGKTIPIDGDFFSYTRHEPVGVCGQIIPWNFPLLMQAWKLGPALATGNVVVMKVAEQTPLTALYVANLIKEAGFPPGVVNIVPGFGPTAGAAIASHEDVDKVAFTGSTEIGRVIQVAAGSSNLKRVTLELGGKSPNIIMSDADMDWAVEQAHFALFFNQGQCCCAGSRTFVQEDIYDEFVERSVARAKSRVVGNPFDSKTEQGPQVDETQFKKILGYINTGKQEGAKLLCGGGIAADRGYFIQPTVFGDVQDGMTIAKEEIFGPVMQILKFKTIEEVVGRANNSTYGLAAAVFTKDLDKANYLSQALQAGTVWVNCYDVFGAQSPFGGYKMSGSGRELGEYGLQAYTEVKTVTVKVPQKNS
Protocol: (§1) ALDH2 catalyzes the oxidative reaction of substrate acetaldehyde to acetic acid using NAD^+ as a cofactor. Enzymatic activity, or catalytic rate, of aldehyde dehydrogenase (ALDH2) are measured spectrophotometrically at UV wavelength λ340 nm by the accumulation of reduced product NADH derived from NAD^+. Absorbance at λ340 nm is quantitatively proportional to the amount of NADH being produced over time (6.22 O.D. unit=1 mmol of NADH, measured in a 1-cm width standard cuvette). This method is well-established in the literature [e.g. Rex et al., Alcohol Clin. Exp. Res. 9, 147 (1985)].
as §1, with “can be” for “are”
(§2) Cloning, expression and purification of human ALDH2 wild type and ALDH2*2 recombinant mutant enzymes: Full-length wild type human ALDH2 cDNA was purchased from ATCC (No. MGC-1806. GenBank ID: BC002967). The 18-amino acid mitochondria transport signal sequence was removed by PCR and cloned into the NheI/HindIII sites of a His-tag vector, pTrcHis, using standard molecular cloning techniques. The human ALDH2* cDNA construct containing the Asian E487K mutation was obtained by site-directed mutagenesis to create the E487K substitution of the wild type ALDH2. Both human clones were designed to express a recombinant protein with the His-tag at the N-terminus of the protein. For the co-expression experiments of human ALDH2 wild type and ALDH2*2 heterotetramers, a wild type ALDH2 gene and a ALDH2 E487K gene were inserted separately into the two multiple cloning sites of pETDuet-1 vector. (Novagen, CA, USA). All the vectors were transformed into BL21 E. coli host cells and subjected to 0.5 mM IPTG induction for protein expression at 30° C. Purifications of the recombinant proteins by affinity nickel columns (HisTrap, GE Healthy Science, USA) were carried out using standard protocols according to manufacturer's instructions (Novagen, USA).
(§3) ALDH2 catalyzes the oxidative reaction of substrate acetaldehyde to acetic acid using NAD^+ as a cofactor. Enzymatic activity, or catalytic rate, of aldehyde dehydrogenase (ALDH2) can be measured spectrophotometrically at UV wavelength λ340 nm by the accumulation of reduced product NADH derived from NAD^+. Because compounds of formula (I) are considered to be agonists or “activators” of ALDH2 the enzymatic activity measured will exceed 100% of the baseline enzymatic activity of the enzyme in its normal activation state. As the concentration of the compounds of formula (I) decreases from 20 micromolar to 0.16 micromolar in the presence of ALDH, a decrease in the activation of enzymatic activity is observed for the wild-type ALDH2*1/*1 and the heterozygous form ALDH2*1/*2.

[2] = target: T2, ALDH2*1/*2 (Homo sapiens, UniProt P05091, E504K); assay: ALDH2 enzymatic activity, NADH accumulation at 340 nm, acetaldehyde substrate, heterozygous form; conditions: relative to baseline enzymatic activity (100%)
T2 construct: His-tag; made in house; host or cells: E. coli BL21 (pETDuet-1 co-expression)
T2 sequence (P05091 18-517): T1 sequence (P05091 18-517)
T2 sequence (P05091 18-517 E504K): T1 sequence (P05091 18-517) with E487K
Protocol: as §1
as §1, with “can be” for “are”
as §2, §3

[3] = target: T3, ALDH2 (Homo sapiens, UniProt P05091); assay: ALDH2 activity with 20 μM of the compound (Table 3); conditions: 20 μM compound
T3 construct: His-tag (N); made in house; host or cells: E. coli BL21
T3 sequence (P05091 18-517): T1 sequence (P05091 18-517)
Outline: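 Compound was tested at 20 μM. ALDH2 oxidation of acetaldehyde with NAD+ cofactor was followed spectrophotometrically as NADH accumulation at 340 nm. Activity is expressed relative to the enzyme's baseline activity, taken as 100%.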

SMILES: COc1ccc(CNC(=O)c2cc(-c3ncccc3CO)ccc2OCC2CC2)cc1F [AC6]
- activity at 2.5 µM ([1]; 2.5 μM compound): 208%
- activity at 5 µM ([1]; 5 μM compound): 238%
- activity at 10 µM ([1]; 10 μM compound): 293%
- activity at 20 µM ([1]; 20 μM compound): 299%
- activity at 2.5 µM ([2]; 2.5 μM compound): 202%
- activity at 5 µM ([2]; 5 μM compound): 260%
- activity at 10 µM ([2]; 10 μM compound): 281%
- activity at 20 µM ([2]; 20 μM compound): 336%
- activity at 20 µM [3]: > 250%
